From PubChem BioAssay (NCI)
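Following 48 hours of exposure in 96-well plates, responses at five concentrations were used to interpolate endpoints linearly. Here, GI50 denotes the concentration required for 50% inhibition of growth. Definition used: TGI = concentration required for complete inhibition of growth.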

Key:
Assay in all cases: NCI tumour cell line growth inhibition, 48 h
NCI-H522 lung = system: NCI-H522 lung
MDA-MB-435 = system: MDA-MB-435
MDA-MB-231 breast = system: MDA-MB-231 breast
HL-60(TB) leukemia = system: HL-60(TB) leukemia
HCT-116 colon = system: HCT-116 colon
HS 578T breast = system: HS 578T breast
UACC-62 melanoma = system: UACC-62 melanoma
RPMI-8226 leukemia = system: RPMI-8226 leukemia
TK-10 renal = system: TK-10 renal
BT-549 breast = system: BT-549 breast
SF-539 CNS = system: SF-539 CNS
DU-145 prostate = system: DU-145 prostate
IGROV1 ovarian = system: IGROV1 ovarian
OVCAR-3 ovarian = system: OVCAR-3 ovarian
HT29 colon = system: HT29 colon
CCRF-CEM leukemia = system: CCRF-CEM leukemia
SK-OV-3 ovarian = system: SK-OV-3 ovarian
RXF 393 renal = system: RXF 393 renal
T-47D breast = system: T-47D breast
MALME-3M melanoma = system: MALME-3M melanoma
OVCAR-5 ovarian = system: OVCAR-5 ovarian
SNB-19 CNS = system: SNB-19 CNS
SNB-75 CNS = system: SNB-75 CNS
ACHN renal = system: ACHN renal
UO-31 renal = system: UO-31 renal
SK-MEL-5 melanoma = system: SK-MEL-5 melanoma
SN12C renal = system: SN12C renal
SF-295 CNS = system: SF-295 CNS
SF-268 CNS = system: SF-268 CNS
K-562 leukemia = system: K-562 leukemia
LOX IMVI melanoma = system: LOX IMVI melanoma
SR leukemia = system: SR leukemia
SK-MEL-2 melanoma = system: SK-MEL-2 melanoma
U251 CNS = system: U251 CNS
HOP-92 NSCLC = system: HOP-92 NSCLC
A549 NSCLC = system: A549 NSCLC
PC-3 prostate = system: PC-3 prostate
NCI-H23 lung = system: NCI-H23 lung
786-0 renal = system: 786-0 renal
UACC-257 melanoma = system: UACC-257 melanoma
HOP-62 NSCLC = system: HOP-62 NSCLC
M14 melanoma = system: M14 melanoma
COLO 205 colon = system: COLO 205 colon
CAKI-1 renal = system: CAKI-1 renal
OVCAR-4 ovarian = system: OVCAR-4 ovarian
SK-MEL-28 melanoma = system: SK-MEL-28 melanoma
HCT-15 colon = system: HCT-15 colon
NCI/ADR-RES ovarian = system: NCI/ADR-RES ovarian
OVCAR-8 ovarian = system: OVCAR-8 ovarian
NCI-H226 lung = system: NCI-H226 lung
EKVX NSCLC = system: EKVX NSCLC
KM12 colon = system: KM12 colon
MOLT-4 leukemia = system: MOLT-4 leukemia
SW-620 colon = system: SW-620 colon

Q: `N#CC1=C(N)NC(N2CCOCC2)=NC12Nc1ccccc1N2` was tested. Which GI50 (NCI-H522 lung) did it give?
A: The GI50 was 23.5 µM.

Q: What about the TGI (NCI-H522 lung) of the same molecule?
A: The TGI was 59.3 µM.

Q: And the GI50 (MDA-MB-435)?
A: Its GI50 is 31 µM.

Q: What about the TGI (MDA-MB-435) of the same molecule?
A: Its TGI is > 100 µM.

Q: And the GI50 (MDA-MB-231 breast)?
A: The GI50 was 15.3 µM.

Q: And the TGI (MDA-MB-231 breast)?
A: Its TGI is 70.3 µM.

Q: What about the GI50 (HL-60(TB) leukemia) of the same molecule?
A: The GI50 was 44.2 µM.

Q: And the TGI (HL-60(TB) leukemia)?
A: The TGI was > 100 µM.

Q: What about the GI50 (HCT-116 colon) of the same molecule?
A: Its GI50 is 16 µM.

Q: What about the TGI (HCT-116 colon) of the same molecule?
A: The TGI was > 100 µM.

Q: And the GI50 (HS 578T breast)?
A: Its GI50 is 18.9 µM.

Q: And the TGI (HS 578T breast)?
A: The TGI was 54.2 µM.

Q: What about the GI50 (UACC-62 melanoma) of the same molecule?
A: Its GI50 is 32.2 µM.

Q: What about the TGI (UACC-62 melanoma) of the same molecule?
A: Its TGI is 82.1 µM.

Q: What about the GI50 (RPMI-8226 leukemia) of the same molecule?
A: The GI50 was 24.2 µM.

Q: What about the TGI (RPMI-8226 leukemia) of the same molecule?
A: The TGI was > 100 µM.

Q: What about the GI50 (TK-10 renal) of the same molecule?
A: Its GI50 is 10.7 µM.

Q: What about the TGI (TK-10 renal) of the same molecule?
A: The TGI was 46.6 µM.

Q: And the GI50 (BT-549 breast)?
A: Its GI50 is 32.6 µM.

Q: What about the TGI (BT-549 breast) of the same molecule?
A: The TGI was > 100 µM.

Q: What about the GI50 (SF-539 CNS) of the same molecule?
A: The GI50 was 36.3 µM.

Q: What about the TGI (SF-539 CNS) of the same molecule?
A: Its TGI is > 100 µM.

Q: What about the GI50 (DU-145 prostate) of the same molecule?
A: The GI50 was 63.6 µM.

Q: What about the TGI (DU-145 prostate) of the same molecule?
A: The TGI was > 100 µM.

Q: What about the GI50 (IGROV1 ovarian) of the same molecule?
A: Its GI50 is 2.15 µM.

Q: What about the TGI (IGROV1 ovarian) of the same molecule?
A: Its TGI is 23.8 µM.

Q: What about the GI50 (OVCAR-3 ovarian) of the same molecule?
A: The GI50 was 20.2 µM.

Q: What about the TGI (OVCAR-3 ovarian) of the same molecule?
A: The TGI was 70.7 µM.

Q: And the GI50 (HT29 colon)?
A: The GI50 was 32.6 µM.

Q: What about the TGI (HT29 colon) of the same molecule?
A: Its TGI is > 100 µM.

Q: What about the GI50 (CCRF-CEM leukemia) of the same molecule?
A: Its GI50 is > 100 µM.

Q: And the TGI (CCRF-CEM leukemia)?
A: The TGI was > 100 µM.

Q: What about the GI50 (SK-OV-3 ovarian) of the same molecule?
A: Its GI50 is 58.1 µM.

Q: And the TGI (SK-OV-3 ovarian)?
A: Its TGI is > 100 µM.

Q: What about the GI50 (RXF 393 renal) of the same molecule?
A: The GI50 was 14.2 µM.

Q: What about the TGI (RXF 393 renal) of the same molecule?
A: The TGI was 40.7 µM.

Q: And the GI50 (T-47D breast)?
A: Its GI50 is 59.1 µM.

Q: What about the TGI (T-47D breast) of the same molecule?
A: The TGI was > 100 µM.

Q: And the GI50 (MALME-3M melanoma)?
A: The GI50 was 30.5 µM.

Q: What about the TGI (MALME-3M melanoma) of the same molecule?
A: The TGI was > 100 µM.

Q: And the GI50 (OVCAR-5 ovarian)?
A: The GI50 was 42.7 µM.

Q: And the TGI (OVCAR-5 ovarian)?
A: The TGI was > 100 µM.

Q: And the GI50 (SNB-19 CNS)?
A: Its GI50 is 40 µM.

Q: What about the TGI (SNB-19 CNS) of the same molecule?
A: The TGI was > 100 µM.

Q: What about the GI50 (SNB-75 CNS) of the same molecule?
A: Its GI50 is > 100 µM.

Q: What about the TGI (SNB-75 CNS) of the same molecule?
A: Its TGI is > 100 µM.

Q: And the GI50 (ACHN renal)?
A: The GI50 was 33.3 µM.

Q: And the TGI (ACHN renal)?
A: The TGI was > 100 µM.

Q: And the GI50 (UO-31 renal)?
A: The GI50 was 12.5 µM.

Q: And the TGI (UO-31 renal)?
A: Its TGI is 81.4 µM.

Q: What about the GI50 (SK-MEL-5 melanoma) of the same molecule?
A: Its GI50 is 15 µM.

Q: And the TGI (SK-MEL-5 melanoma)?
A: The TGI was 32 µM.

Q: And the GI50 (SN12C renal)?
A: The GI50 was 30.1 µM.

Q: What about the TGI (SN12C renal) of the same molecule?
A: Its TGI is > 100 µM.

Q: And the GI50 (SF-295 CNS)?
A: The GI50 was 32.6 µM.

Q: And the TGI (SF-295 CNS)?
A: The TGI was > 100 µM.

Q: What about the GI50 (SF-268 CNS) of the same molecule?
A: The GI50 was 21.6 µM.

Q: And the TGI (SF-268 CNS)?
A: Its TGI is 51.1 µM.

Q: What about the GI50 (K-562 leukemia) of the same molecule?
A: Its GI50 is > 100 µM.

Q: And the TGI (K-562 leukemia)?
A: The TGI was > 100 µM.

Q: What about the GI50 (LOX IMVI melanoma) of the same molecule?
A: Its GI50 is 23.5 µM.

Q: And the TGI (LOX IMVI melanoma)?
A: Its TGI is 62.5 µM.

Q: And the GI50 (SR leukemia)?
A: Its GI50 is 28.8 µM.

Q: And the TGI (SR leukemia)?
A: The TGI was > 100 µM.

Q: And the GI50 (SK-MEL-2 melanoma)?
A: Its GI50 is 20.1 µM.

Q: What about the TGI (SK-MEL-2 melanoma) of the same molecule?
A: Its TGI is 47.4 µM.

Q: What about the GI50 (U251 CNS) of the same molecule?
A: The GI50 was 52.6 µM.

Q: And the TGI (U251 CNS)?
A: The TGI was > 100 µM.

Q: And the GI50 (HOP-92 NSCLC)?
A: Its GI50 is > 100 µM.

Q: What about the TGI (HOP-92 NSCLC) of the same molecule?
A: The TGI was > 100 µM.

Q: And the GI50 (A549 NSCLC)?
A: The GI50 was 39.8 µM.

Q: What about the TGI (A549 NSCLC) of the same molecule?
A: Its TGI is > 100 µM.

Q: What about the GI50 (PC-3 prostate) of the same molecule?
A: The GI50 was 46.1 µM.

Q: What about the TGI (PC-3 prostate) of the same molecule?
A: Its TGI is > 100 µM.

Q: And the GI50 (NCI-H23 lung)?
A: Its GI50 is 21.9 µM.

Q: And the TGI (NCI-H23 lung)?
A: Its TGI is > 100 µM.

Q: What about the GI50 (786-0 renal) of the same molecule?
A: Its GI50 is 13 µM.

Q: What about the TGI (786-0 renal) of the same molecule?
A: Its TGI is 40 µM.

Q: What about the GI50 (UACC-257 melanoma) of the same molecule?
A: The GI50 was 22.9 µM.

Q: And the TGI (UACC-257 melanoma)?
A: The TGI was 49.1 µM.

Q: What about the GI50 (HOP-62 NSCLC) of the same molecule?
A: Its GI50 is 6.09 µM.

Q: And the TGI (HOP-62 NSCLC)?
A: Its TGI is 32.5 µM.

Q: And the GI50 (M14 melanoma)?
A: The GI50 was > 100 µM.

Q: What about the TGI (M14 melanoma) of the same molecule?
A: The TGI was > 100 µM.

Q: What about the GI50 (COLO 205 colon) of the same molecule?
A: The GI50 was 24.1 µM.

Q: What about the TGI (COLO 205 colon) of the same molecule?
A: Its TGI is > 100 µM.

Q: What about the GI50 (CAKI-1 renal) of the same molecule?
A: The GI50 was 10.8 µM.

Q: And the TGI (CAKI-1 renal)?
A: Its TGI is 37.8 µM.

Q: What about the GI50 (OVCAR-4 ovarian) of the same molecule?
A: Its GI50 is > 100 µM.

Q: And the TGI (OVCAR-4 ovarian)?
A: Its TGI is > 100 µM.

Q: What about the GI50 (SK-MEL-28 melanoma) of the same molecule?
A: The GI50 was 55.8 µM.

Q: What about the TGI (SK-MEL-28 melanoma) of the same molecule?
A: The TGI was > 100 µM.

Q: And the GI50 (HCT-15 colon)?
A: Its GI50 is 35.2 µM.

Q: What about the TGI (HCT-15 colon) of the same molecule?
A: The TGI was > 100 µM.

Q: And the GI50 (NCI/ADR-RES ovarian)?
A: Its GI50 is 28.3 µM.

Q: What about the TGI (NCI/ADR-RES ovarian) of the same molecule?
A: The TGI was 87 µM.

Q: And the GI50 (OVCAR-8 ovarian)?
A: Its GI50 is 37.5 µM.

Q: And the TGI (OVCAR-8 ovarian)?
A: Its TGI is > 100 µM.

Q: What about the GI50 (NCI-H226 lung) of the same molecule?
A: Its GI50 is 27.3 µM.

Q: What about the TGI (NCI-H226 lung) of the same molecule?
A: Its TGI is > 100 µM.

Q: And the GI50 (EKVX NSCLC)?
A: Its GI50 is > 100 µM.

Q: What about the TGI (EKVX NSCLC) of the same molecule?
A: The TGI was > 100 µM.

Q: And the GI50 (KM12 colon)?
A: The GI50 was > 100 µM.

Q: What about the TGI (KM12 colon) of the same molecule?
A: The TGI was > 100 µM.

Q: What about the GI50 (MOLT-4 leukemia) of the same molecule?
A: The GI50 was 62.5 µM.

Q: And the TGI (MOLT-4 leukemia)?
A: Its TGI is > 100 µM.

Q: And the GI50 (SW-620 colon)?
A: The GI50 was 26.7 µM.

Q: And the TGI (SW-620 colon)?
A: The TGI was > 100 µM.
